Reference: the supplement of paper PMC10307832

What was measured:
Assay in all cases: relative viability (nuclei count vs DMSO), 5 days (fraction); higher = more cells survive
[1] = compound: CN1CCN(CC1)C2=CC(=C(C=C2)NC3=NC(=C(S3)C(=O)C4=C(C=CC=C4Cl)Cl)N)OC [XMD14-99] + NC(=O)Nc1cc(-c2cccc(F)c2)sc1C(=O)N[C@H]1CCCNC1 [AZD7762] (partner 0.2 µM)
In short: (§1)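 Relative viability equals treated-well nuclei counts divided by vehicle-well nuclei counts. Counts came from 4× images of lung cancer cell lines grown in 1536-well plates for 5 days after pin-tool dosing on the day after seeding. Dosing used one drug alone or a fixed anchor-drug dose plus five library-drug doses (not always all listed) in √10 steps, and values are medians of duplicate plates.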

[2] = compound: CN1CCN(CC1)C2=CC(=C(C=C2)NC3=NC(=C(S3)C(=O)C4=C(C=CC=C4Cl)Cl)N)OC [XMD14-99] + CC(=O)c1c(C)c2cnc(Nc3ccc(N4CCNCC4)cn3)nc2n(C2CCCC2)c1=O [Palbociclib] (partner 0.5 µM)
In short: as §1

[3] = compound: CN1CCN(CC1)C2=CC(=C(C=C2)NC3=NC(=C(S3)C(=O)C4=C(C=CC=C4Cl)Cl)N)OC [XMD14-99] + CCNC(=O)c1noc(-c2cc(C(C)C)c(O)cc2O)c1-c1ccc(CN2CCOCC2)cc1 [Luminespib] (partner 0.01 µM)
In short: as §1

[4] = compound: N[C@@H]1CCCN(c2c(/C=C3\SC(=O)NC3=O)cccc2-c2ccccc2)C1 [AZD1208] + CC(=O)c1c(C)c2cnc(Nc3ccc(N4CCNCC4)cn3)nc2n(C2CCCC2)c1=O [Palbociclib] (partner 0.5 µM)
In short: as §1

Cell Line | relative viability ([1]; first compound 0.08 µM) | relative viability ([1]; first compound 0.8 µM) | relative viability ([1]; first compound 2.53 µM) | relative viability ([1]; first compound 8 µM) | relative viability ([2]; first compound 0.08 µM) | relative viability ([2]; first compound 0.8 µM) | relative viability ([2]; first compound 2.53 µM) | relative viability ([2]; first compound 8 µM) | relative viability ([3]; first compound 0.08 µM) | relative viability ([3]; first compound 0.8 µM) | relative viability ([3]; first compound 2.53 µM) | relative viability ([3]; first compound 8 µM) | relative viability ([4]; first compound 0.08 µM) | relative viability ([4]; first compound 0.253 µM) | relative viability ([4]; first compound 0.8 µM) | relative viability ([4]; first compound 2.53 µM) | relative viability ([4]; first compound 8 µM)
HCC-44 | 1.05 | 1.04 | 0.993 | 0.981 | 1.03 | 0.969 | 1 | 1.01 | 1.01 | 0.968 | 1.07 | 0.753 | 1.01 | 0.941 | 0.976 | 0.968 | 1.02
HCC-827 | 0.227 | 0.202 | 0.203 | 0.191 | 0.506 | 0.406 | 0.451 | 0.446 | 0.492 | 0.669 | 0.595 | 0.617 | 0.493 | 0.411 | 0.405 | 0.481 | 0.509
NCI-H1623 | – | – | – | – | – | – | – | – | 0.509 | 0.475 | 0.454 | 0.444 | – | – | – | – | –
NCI-H2405 | 0.745 | 0.809 | 0.586 | 0.479 | 0.512 | 0.578 | 0.557 | 0.503 | 0.659 | 0.767 | 0.861 | 0.475 | 0.497 | 0.536 | 0.505 | 0.51 | 0.418
PC-3 [JPC-3] | 0.905 | 0.789 | 0.681 | 0.553 | 0.574 | 0.501 | 0.59 | 0.538 | 0.682 | 0.66 | 0.564 | 0.588 | 0.586 | 0.596 | 0.548 | 0.582 | 0.564
NCI-H1651 | 0.429 | 0.466 | 0.444 | 0.46 | 0.535 | 0.535 | 0.535 | 0.522 | 0.939 | 0.647 | 0.63 | 0.644 | 0.527 | 0.535 | – | 0.473 | 0.459
NCI-H1650 | – | – | – | – | 0.389 | 0.328 | 0.345 | 0.306 | 0.21 | 0.208 | 0.189 | 0.188 | 0.331 | 0.401 | 0.311 | 0.323 | 0.35
HCC-78 | 0.567 | 0.565 | 0.749 | 0.404 | 0.487 | 0.54 | 0.557 | 0.445 | – | – | – | – | 0.464 | 0.427 | 0.466 | 0.446 | 0.452
NCI-H1563 | – | – | – | – | – | – | – | – | 0.505 | 0.551 | 0.546 | 0.48 | – | – | – | – | –
COR-L23 | – | – | – | – | 0.266 | 0.295 | 0.299 | 0.18 | 0.578 | 0.613 | 0.515 | 0.419 | 0.288 | 0.312 | 0.256 | 0.295 | 0.244
NCI-H1648 | 0.715 | 0.625 | 0.672 | 0.581 | 0.261 | 0.267 | 0.268 | 0.289 | – | – | – | – | 0.277 | 0.255 | 0.244 | 0.227 | 0.294
NCI-H1703 | 0.0933 | 0.124 | 0.143 | 0.118 | – | – | – | – | – | – | – | – | – | – | – | – | –
SW 1573 | – | – | – | – | 0.342 | 0.44 | 0.421 | 0.36 | 0.157 | 0.365 | 0.236 | 0.214 | 0.264 | 0.268 | 0.265 | 0.346 | 0.259
COR-L 105 | – | – | – | – | 0.402 | 0.418 | 0.433 | 0.344 | 0.693 | 0.845 | 0.778 | 0.466 | 0.37 | 0.344 | 0.379 | 0.38 | 0.43
NCI-H2009 | – | – | – | – | 0.358 | 0.319 | 0.26 | 0.236 | 1.08 | 0.949 | 0.958 | 0.871 | 0.196 | 0.202 | 0.221 | 0.208 | 0.181
SK-LU-1 | – | – | – | – | 0.418 | 0.42 | 0.356 | 0.266 | 0.197 | 0.201 | 0.235 | 0.184 | 0.341 | 0.373 | 0.375 | 0.421 | 0.401
HCC-366 | 0.237 | 0.215 | 0.251 | 0.187 | 0.452 | 0.383 | 0.346 | 0.306 | – | – | – | – | 0.408 | 0.482 | 0.376 | 0.404 | 0.245
SK-MES-1 | – | – | – | – | 0.345 | 0.343 | 0.372 | 0.223 | 0.786 | 0.73 | 0.729 | 0.566 | 0.299 | 0.348 | 0.316 | 0.307 | 0.311
NCI-H520 | – | – | – | – | 0.174 | 0.186 | 0.239 | 0.222 | 0.191 | 0.219 | 0.217 | 0.223 | 0.188 | 0.195 | 0.146 | 0.205 | 0.186
NCI-H661 | – | – | – | – | 0.406 | 0.452 | 0.386 | 0.358 | 0.855 | 0.778 | 0.697 | 0.55 | 0.418 | 0.394 | 0.428 | 0.414 | 0.4
NCI-H2228 | – | – | – | – | 0.749 | 0.56 | 0.774 | 0.278 | 0.147 | 0.19 | 0.153 | 0.104 | 0.764 | 0.911 | 0.804 | 0.6 | 0.656
NCI-H596 | 1.16 | 1.01 | 1.29 | 1.15 | – | – | – | – | 1.05 | 1.11 | 0.917 | 0.983 | – | – | – | – | –
NCI-H2023 | – | – | – | – | 0.342 | 0.409 | 0.374 | 0.264 | 0.719 | – | 0.617 | 0.471 | 0.34 | 0.39 | 0.333 | 0.373 | 0.332
